Assay results as given in US20240158446A1, “CYCLIC COMPOUND HAVING SELECTIVE INHIBITORY ACTION ON KRAS OVER HRAS AND NRAS” (CHUGAI SEIYAKU KABUSHIKI KAISHA, priority 2021, published 2024).
Read-outs that look alike come from different tables or passages of the source. Where a SMILES comes first, the peptide text is derived from it. Bridges are numbered along the chain shown (N, C = ends). [ ]: non-standard residue; d: D form. The star is where a group is joined. hPhe(3-Cl-4-CF3) = N[C@@H](CCc1ccc(C(F)(F)F)c(Cl)c1)C(=O)O; NPrPhe(4-CF3) = CCCN[C@@H](Cc1ccc(C(F)(F)F)cc1)C(=O)O; NMeGly(cPent) = CN[C@H](C(=O)O)C1CCCC1; NMeD = CN[C@@H](CC(=O)O)C(=O)O; NMeL = CN[C@@H](CC(C)C)C(=O)O; Morpholide = C1CN(*)CCO1; Ac4c = NC1(C(=O)O)CCC1; NEtG = CCNCC(=O)O; Sar = CNCC(=O)O

Columns and labels:
[1] = target: GDP-bound NRAS wild-type protein (Homo sapiens, UniProt P01111); assay: Binding to NRAS by surface plasmon resonance (SPR), Single Cycle Kinetics; settings: SPR; for NRAS/KRAS (ratio of KD value for NRAS to KD value for KRAS): GDP-bound NRAS wild-type protein vs GDP-bound KRAS wild-type protein
Sequence of GDP-bound NRAS wild-type protein (P01111 whole entry): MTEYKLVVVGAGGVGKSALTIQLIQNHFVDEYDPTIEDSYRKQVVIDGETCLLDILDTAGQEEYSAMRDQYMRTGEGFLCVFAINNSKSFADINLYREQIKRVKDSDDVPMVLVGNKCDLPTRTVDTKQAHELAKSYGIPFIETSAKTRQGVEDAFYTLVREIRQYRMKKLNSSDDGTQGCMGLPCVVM

[2] = target: GDP-bound HRAS wild-type protein (Homo sapiens, UniProt P01112); assay: Binding to HRAS by surface plasmon resonance (SPR), Single Cycle Kinetics; settings: SPR; for HRAS/KRAS (ratio of KD value for HRAS to KD value for KRAS): GDP-bound HRAS wild-type protein vs GDP-bound KRAS wild-type protein
Sequence of GDP-bound HRAS wild-type protein (P01112 whole entry): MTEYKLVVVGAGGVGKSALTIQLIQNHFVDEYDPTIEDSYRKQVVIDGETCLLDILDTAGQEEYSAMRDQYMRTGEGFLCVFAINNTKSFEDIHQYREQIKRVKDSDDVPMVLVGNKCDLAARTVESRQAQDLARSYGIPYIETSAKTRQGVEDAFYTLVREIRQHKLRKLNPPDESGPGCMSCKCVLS

[3] = system: human lung cancer strain NCI-H441;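 further: cell proliferation inhibition after four days measured by CellTiter-Glo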
[4] = target: GDP-bound KRAS wild-type protein (Homo sapiens, UniProt P01116); assay: Binding to KRAS by surface plasmon resonance (SPR), Single Cycle Kinetics; settings: SPR, Single Cycle Kinetics, GDP-bound KRAS wild-type protein, read-out: KRAS KD
Sequence of GDP-bound KRAS wild-type protein (P01116 whole entry): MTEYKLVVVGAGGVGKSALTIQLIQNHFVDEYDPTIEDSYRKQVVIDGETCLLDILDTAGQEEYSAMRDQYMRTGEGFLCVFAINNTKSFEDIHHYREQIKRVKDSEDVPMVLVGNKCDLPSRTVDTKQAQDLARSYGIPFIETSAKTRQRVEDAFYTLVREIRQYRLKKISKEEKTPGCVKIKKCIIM

SMILES | IC50 [3] | Kd ([4]; 1:1 binding model) | IC50 ([3]; read-out: NCI-H441 IC50, NCI-H441 cell proliferation, 4 days, CellTiter-Glo) | Kd [4] | NRAS/KRAS (ratio of KD value for NRAS to KD value for KRAS) ([1]; KD ratio class) | HRAS/KRAS (ratio of KD value for HRAS to KD value for KRAS) ([2]; KD ratio class) | NRAS/KRAS (KD ratio) ([1]; ratio of KD for GDP-bound NRAS wild-type protein to KD for KRAS) | HRAS/KRAS (KD ratio) ([2]; ratio of KD for GDP-bound HRAS wild-type protein to KD for KRAS) | NRAS/KRAS (ratio of KD value for NRAS to KD value for KRAS) [1] | HRAS/KRAS (ratio of KD value for HRAS to KD value for KRAS) [2]
CCC[C@H]1C(=O)N[C@@H]([C@@H](C)CC)C(=O)N(C)CC(=O)N(C)[C@H]2C/C=C\CCN(C2=O)[C@@H](Cc2ccc(C(F)(F)F)cc2)C(=O)N(C)CC(=O)N[C@@H](CCc2ccc(C(F)(F)F)c(OC)c2)C(=O)N2C[C@H](OCC)C[C@H]2C(=O)NC2(CCC2)C(=O)N(C)[C@@H](C(CC)CC)C(=O)N(C)[C@H](C(=O)N(C)C)CC(=O)N1C [PP1208] | 24.4 nM | 0.17 nM | – | – | AA (a compound having 20 or more is denoted as AA) | A (a compound having 10 or more and less than 20 is denoted as A) | – | – | – | –
CC[C@H](C)[C@@H]1NC(=O)[C@H](CC)N(C)C(=O)C[C@@H](C(=O)N2CCOCC2)N(C)C(=O)[C@H](C2CCCC2)N(C)C(=O)C2(CCC2)NC(=O)[C@@H]2CCCN2C(=O)[C@H](CCc2cc(F)c(C(F)(F)F)c(F)c2)NC(=O)CN(C)C(=O)[C@H](Cc2ccc(C(F)(F)F)cc2)N2C[C@H](C)[C@H](C)C[C@@H](C2=O)N(C)C(=O)CN(C)C1=O [PP1366] | 14 nM | 0.11 nM | – | – | A (a compound having 10 or more and less than 20 is denoted as A) | B (a compound having 3 or more and less than 10 is denoted as B) | – | – | – | –
CCCN1C(=O)CN(CC)C(=O)CN(C)C(=O)[C@H]([C@@H](C)CC)NC(=O)[C@H](CC(C)C)N(C)C(=O)C[C@@H](C(=O)N2CCOCC2)N(C)C(=O)[C@H](C2CCCC2)N(C)C(=O)C2(CCC2)NC(=O)[C@@H]2CCCN2C(=O)[C@H](CCc2ccc(C(F)(F)F)c(Cl)c2)NC(=O)CN(C)C(=O)[C@@H]1Cc1ccc(C(F)(F)F)cc1 [PP1948] ([NMeL]I[Sar][NEtG][NPrPhe(4-CF3)][Sar][hPhe(3-Cl-4-CF3)]P[Ac4c][NMeGly(cPent)][NMeD]-Morpholide; lactam N-11) | – | – | 16.2 nM | 0.41 nM | – | – | C (A compound having a KD ratio of 0.1 or more and less than 3 is denoted as C) | C (A compound having a KD ratio of 0.1 or more and less than 3 is denoted as C) | – | –
CCO[C@@H]1C[C@H]2C(=O)NC3(CCC3)C(=O)N(C)[C@@H](C3CCCC3)C(=O)N(C)[C@H](C(=O)N(C)C)CC(=O)N(C)[C@@H](CC3CCC3)C(=O)N[C@@H]([C@@H](C)CC)C(=O)N(C)CC(=O)N(C)[C@H]3C/C=C\CCN(C3=O)[C@@H](CC3CCC(F)(F)CC3)C(=O)N(C)CC(=O)N[C@@H](CCc3cc(F)c(C(F)(F)F)c(F)c3)C(=O)N2C1 [PP1455, (2S,8S,12R,14S,20S,23S,27S,30S,36S,38Z)-27-(cyclobutylmethyl)-20-cyclopentyl-2-[(4,4-difluorocyclohexyl)methyl]-8-[2-[3,5-difluoro-4-(trifluoromethyl)phenyl]ethyl]-12-ethoxy-N,N,4,19,22,26,32,35-octamethyl-30-[(1S)-1-methylpropyl]-3,6,9,15,18,21,25,28,31,34,42-undecaoxo-spiro[1,4,7,10,16,19,22,26,29,32,35-undecazatricyclo[34.5.1.0^10,14]dotetracont-38-ene-17,1′-cyclobutane]-23-carboxamide] | 13.4 nM | 0.11 nM | – | – | A (a compound having 10 or more and less than 20 is denoted as A) | A (a compound having 10 or more and less than 20 is denoted as A) | – | – | – | –
CCC[C@H]1C(=O)N[C@@H]([C@@H](C)CC)C(=O)N(C2CC2)CC(=O)N(C)[C@H]2C/C=C\CCN(C2=O)[C@@H](CC2CCCCC2)C(=O)N(C)CC(=O)N[C@@H](CCc2ccc(C(F)(F)F)c(OC)c2)C(=O)N2C[C@@H](C)C[C@H]2C(=O)N(C)C2(CCC2)C(=O)N(C)[C@@H](C2CCCC2)C(=O)N(C)[C@H](C(=O)N(C)C)CC(=O)N1C [PP2372] | 3.3 nM | – | – | 0.79 nM | – | – | – | – | A (a compound having 10 or more and less than 20 is denoted as A) | B (a compound having 3 or more and less than 10 is denoted as B)
CC[C@H](C)[C@@H]1NC(=O)[C@H](CC)N(C)C(=O)C[C@@H](C(=O)N(C)C)N(C)C(=O)[C@H](C2CCCC2)N(C)C(=O)C2(CCC2)NC(=O)[C@@H]2COCCN2C(=O)[C@H](CCc2cc(F)c(C(F)(F)F)c(F)c2)NC(=O)CN(C)C(=O)[C@H](Cc2ccc(C(F)(F)F)cc2)N2CC/C=C\C[C@@H](C2=O)N(C)C(=O)CN(C)C1=O [PP1138] | 244 nM | – | – | 0.19 nM | – | – | – | – | A (a compound having 10 or more and less than 20 is denoted as A) | A (a compound having 10 or more and less than 20 is denoted as A)

Now from value to compound, other results behind:

IC50 [3] | Kd ([4]; 1:1 binding model) | IC50 ([3]; read-out: NCI-H441 IC50, NCI-H441 cell proliferation, 4 days, CellTiter-Glo) | Kd [4] | SMILES | NRAS/KRAS (ratio of KD value for NRAS to KD value for KRAS) ([1]; KD ratio class) | HRAS/KRAS (ratio of KD value for HRAS to KD value for KRAS) ([2]; KD ratio class) | NRAS/KRAS (KD ratio) ([1]; ratio of KD for GDP-bound NRAS wild-type protein to KD for KRAS) | HRAS/KRAS (KD ratio) ([2]; ratio of KD for GDP-bound HRAS wild-type protein to KD for KRAS) | NRAS/KRAS (ratio of KD value for NRAS to KD value for KRAS) [1] | HRAS/KRAS (ratio of KD value for HRAS to KD value for KRAS) [2]
37.6 nM | 0.22 nM | – | – | CCO[C@@H]1C[C@H]2C(=O)NC3(CCC3)C(=O)N(C)[C@@H](C3CCCC3)C(=O)N(C)[C@H](C(=O)N3CCOCC3)CC(=O)N(C)[C@@H](CC3CC3)C(=O)N[C@@H]([C@@H](C)CC)C(=O)N(C)CC(=O)N(C)[C@H]3C/C=C\CCN(C3=O)[C@@H](Cc3ccc(C)cc3)C(=O)N(C)CC(=O)N[C@@H](CCc3cc(F)c(C(F)(F)F)c(F)c3)C(=O)N2C1 [PP1408] | A (a compound having 10 or more and less than 20 is denoted as A) | A (a compound having 10 or more and less than 20 is denoted as A) | – | – | – | –
92.8 nM | 0.27 nM | – | – | CCO[C@@H]1C[C@H]2C(=O)NC3(CCC3)C(=O)N(C)[C@@H](C3CCCC3)C(=O)N(C)[C@H](C(=O)N3CCC3)CC(=O)N(C)[C@@H](CC)C(=O)N[C@@H]([C@@H](C)CC)C(=O)N(C)CC(=O)N(C)[C@H]3C/C=C\CCN(C3=O)[C@@H](CC3CCCCC3)C(=O)N(C)CC(=O)N[C@@H](CCc3cc(F)c(C(F)(F)F)c(F)c3)C(=O)N2C1 [PP1445] | A (a compound having 10 or more and less than 20 is denoted as A) | A (a compound having 10 or more and less than 20 is denoted as A) | – | – | – | –
12.1 nM | 0.045 nM | – | – | CCO[C@@H]1C[C@H]2C(=O)NC3(CCC3)C(=O)N(C)[C@@H](C3CCCC3)C(=O)N(C)[C@H](C(=O)N(C)C)CC(=O)N(C)[C@@H](COC3CC3)C(=O)N[C@@H]([C@@H](C)CC)C(=O)N(C)CC(=O)N(C)[C@H]3C/C=C\CCN(C3=O)[C@@H](Cc3ccc(C(F)(F)F)cc3)C(=O)N(C)CC(=O)N[C@@H](CCc3cc(F)c(C(F)(F)F)c(F)c3)C(=O)N2C1 [PP1268, (2S,8S,12R,14S,20S,23S,27S,30S,36S,38Z)-20-cyclopentyl-27-(cyclopropoxymethyl)-8-[2-[3,5-difluoro-4-(trifluoromethyl)phenyl]ethyl]-12-ethoxy-N,N,4,19,22,26,32,35-octamethyl-30-[(1S)-1-methylpropyl]-3,6,9,15,18,21,25,28,31,34,42-undecaoxo-2-[[4-(trifluoromethyl)phenyl]methyl]spiro[1,4,7,10,16,19,22,26,29,32,35-undecazatricyclo[34.5.1.0^10,14]dotetracont-38-ene-17,1′-cyclobutane]-23-carboxamide] | A (a compound having 10 or more and less than 20 is denoted as A) | A (a compound having 10 or more and less than 20 is denoted as A) | – | – | – | –
295 nM | – | – | 1.5 nM | CCO[C@@H]1C[C@H]2C(=O)NC3(CCC3)C(=O)N(C)[C@@H](C3CCCC3)C(=O)N(C)[C@H](C(=O)N3CCOCC3)CC(=O)N(C)[C@@H](Cc3ccccc3C#N)C(=O)N[C@@H]([C@@H](C)CC)C(=O)N(C)CC(=O)N(C)[C@H]3CCCCCN(C3=O)[C@@H](Cc3ccc(C(F)(F)F)cc3)C(=O)N(C)CC(=O)N[C@@H](CCc3cc(F)c(C(F)(F)F)c(F)c3)C(=O)N2C1 [PP1165] | – | – | – | – | A (a compound having 10 or more and less than 20 is denoted as A) | B (a compound having 3 or more and less than 10 is denoted as B)
139 nM | – | – | 2.6 nM | CCO[C@@H]1C[C@H]2C(=O)NC3(CCC3)C(=O)N(C)[C@@H](C3CCCC3)C(=O)N(C)[C@H](C(=O)N3CCOCC3)CC(=O)N(C)[C@@H](CC(C)C)C(=O)N[C@@H]([C@@H](C)CC)C(=O)N(C)CC(=O)N(C)[C@H]3CCCCCN(C3=O)[C@@H](Cc3ccc4ccsc4c3)C(=O)N(C)CC(=O)N[C@@H](CCc3cc(F)c(C(F)(F)F)c(F)c3)C(=O)N2C1 [PP0921] | – | – | – | – | B (a compound having 3 or more and less than 10 is denoted as B) | B (a compound having 3 or more and less than 10 is denoted as B)
